Patent US20100160356A1, “NOVEL CYCLOBUTYL COMPOUNDS AS KINASE INHIBITORS” (priority 2006, published 2010)
Converted amounts (≈) assume the structure as drawn.

Legend:
IGF1R = IGF1R (Homo sapiens, UniProt P08069); assay: Inhibition of IGF1R (flashplate assay); type: biochemical; settings: flashplate method
Procedure, shortened: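 IGF1R kinase incubated 1 hr at room temperature with ^33P-ATP and biotinylated poly(Glu,Tyr)4:1 ± test compound; stopped with EDTA, wells washed after 30 min. Bound radioactivity counted by scintillation; IC50 calculated.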

[1] = target: T1, FAK (focal adhesion kinase) (Homo sapiens, UniProt Q05397); assay: Inhibition of FAK (ELISA assay), FAK phosphorylation in cells; type: cell-based; settings: human cells with FAK amplification
T1 construct: endogenous in cells; host or cells: Calu-6 or HT-29
Procedure, shortened: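 Cells pretreated 45 min with increasing compound concentrations, with a reference inhibitor series as internal control. FAK from lysates captured by specific antibody on ELISA plate or LUMINEX beads; tyrosine phosphorylation detected with anti-phosphotyrosine antibody by chemiluminescence or fluorescence.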

TGFβR1 = target: T2, TGFβR1 (Homo sapiens, UniProt P36897); assay: Inhibition of TGFβR1 (flashplate assay); type: biochemical; settings: flashplate method
T2 sequence (P36897 34-503): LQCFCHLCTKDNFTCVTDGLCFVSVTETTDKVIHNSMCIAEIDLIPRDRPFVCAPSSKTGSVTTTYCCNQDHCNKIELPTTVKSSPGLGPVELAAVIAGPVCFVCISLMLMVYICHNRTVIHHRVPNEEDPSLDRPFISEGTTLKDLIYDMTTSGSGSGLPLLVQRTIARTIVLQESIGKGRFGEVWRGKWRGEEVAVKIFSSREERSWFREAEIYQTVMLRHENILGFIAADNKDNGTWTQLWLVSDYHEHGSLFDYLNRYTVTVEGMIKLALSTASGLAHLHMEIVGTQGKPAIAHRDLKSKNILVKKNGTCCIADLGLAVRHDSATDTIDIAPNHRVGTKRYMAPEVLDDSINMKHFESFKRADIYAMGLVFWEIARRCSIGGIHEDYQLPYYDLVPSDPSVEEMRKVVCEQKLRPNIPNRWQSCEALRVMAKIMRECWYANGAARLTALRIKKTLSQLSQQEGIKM
Procedure, shortened: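 Kinase was incubated 45 min with 33P-ATP and biotinylated substrate, with or without test substances, then stopped with EDTA. Incorporated radioactivity was counted by scintillation in a flashplate format. IC50 values were calculated from the counts.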

PDGFRβ = PDGFRβ (Homo sapiens, UniProt P09619); assay: Inhibition of PDGFRβ (flashplate assay); type: biochemical; settings: flashplate method
Procedure, shortened: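 Autophosphorylation of PDGFRβ kinase with ^33P-ATP, ± test compound, 3 hr at room temperature in flashplates. Stopped with EDTA, washed, and bound radioactivity counted by scintillation. IC50 calculated from the counts.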

FAK = FAK (Homo sapiens, UniProt Q05397); assay: Inhibition of FAK (flashplate assay); type: biochemical; settings: flashplate method
Experimental: The test plates used are 384-well flashplate microtitre plates from Perkin Elmer (USA). The components of the kinase reaction are pipetted into the assay plate. The FAK kinase is incubated for 3 hr. with radioactively labelled ^33P-ATP in the presence and absence of test substances in a total volume of 100 μl at room temperature together with biotinylated poly(Glu, Tyr)4:1. The reaction is terminated using 25 μl of a 200 mM EDTA solution. After incubation for a further 30 min at room temperature, the supernatants are removed by suction, and the wells are washed three times with 100 μl of 0.9% NaCl solution each time. The radioactivity is measured using a Topcount scintillation counter (PerkinElmer, USA). IC50 values are calculated using the RS1 computer program.

[2] = Solubility in phosphate buffer by the shake flask method; type: physicochemical; settings: pH 7.0, 37° C., 24 h shake flask; for solubility at 24 h: 37 °C, pH 7, aqueous buffer, thermodynamic from solid
Experimental: The procedure described in Glomme et al. (J. Pharm. Sci. 94(1): 1-16, 2005) is followed. The concentration determination is carried out by HPLC with UV detection against a standard solution.
Buffer: 3.954 g of sodium dihydrogenphosphate monohydrate 6.024 g of sodium chloride +950 ml of ultrapure water. Setting of pH 7.0 using 0.1 M NaOH or 0.1 M HCl.
The samples were shaken at 37° C. and 450 rpm for 24 h. After about 7 h, the pH of the samples was checked and adjusted if necessary. It was checked whether the sample was still present in excess. Just before the end of the 24 h shaking time, the samples were again checked for pH and a precipitate.
• Ultrapure water plant: MilliQ gradient, Millipore, unit: F3PN37462D • Shaker: TiMix control, Bühler • Incubation hood: TH 15, Bühler • pH meter: 766 Calimatic Knick instrument: pH 1 • pH electrode: InLab 423 Mettler • HPLC: column: LiChroCart 125-4 LiChrospher 100 RP-18 • flow rate: 1.000 ml/min • eluents: • eluent A: 2 ml of diethylamine, for synthesis+1000 ml of methanol, LiChrosolv • eluent B: 5 g of ammonium acetate, for analysis+5 ml of methanol, LiChrosolv+995 ml of ultrapure water

Chain of PDGFRβ (P09619 33-1106, species assumed): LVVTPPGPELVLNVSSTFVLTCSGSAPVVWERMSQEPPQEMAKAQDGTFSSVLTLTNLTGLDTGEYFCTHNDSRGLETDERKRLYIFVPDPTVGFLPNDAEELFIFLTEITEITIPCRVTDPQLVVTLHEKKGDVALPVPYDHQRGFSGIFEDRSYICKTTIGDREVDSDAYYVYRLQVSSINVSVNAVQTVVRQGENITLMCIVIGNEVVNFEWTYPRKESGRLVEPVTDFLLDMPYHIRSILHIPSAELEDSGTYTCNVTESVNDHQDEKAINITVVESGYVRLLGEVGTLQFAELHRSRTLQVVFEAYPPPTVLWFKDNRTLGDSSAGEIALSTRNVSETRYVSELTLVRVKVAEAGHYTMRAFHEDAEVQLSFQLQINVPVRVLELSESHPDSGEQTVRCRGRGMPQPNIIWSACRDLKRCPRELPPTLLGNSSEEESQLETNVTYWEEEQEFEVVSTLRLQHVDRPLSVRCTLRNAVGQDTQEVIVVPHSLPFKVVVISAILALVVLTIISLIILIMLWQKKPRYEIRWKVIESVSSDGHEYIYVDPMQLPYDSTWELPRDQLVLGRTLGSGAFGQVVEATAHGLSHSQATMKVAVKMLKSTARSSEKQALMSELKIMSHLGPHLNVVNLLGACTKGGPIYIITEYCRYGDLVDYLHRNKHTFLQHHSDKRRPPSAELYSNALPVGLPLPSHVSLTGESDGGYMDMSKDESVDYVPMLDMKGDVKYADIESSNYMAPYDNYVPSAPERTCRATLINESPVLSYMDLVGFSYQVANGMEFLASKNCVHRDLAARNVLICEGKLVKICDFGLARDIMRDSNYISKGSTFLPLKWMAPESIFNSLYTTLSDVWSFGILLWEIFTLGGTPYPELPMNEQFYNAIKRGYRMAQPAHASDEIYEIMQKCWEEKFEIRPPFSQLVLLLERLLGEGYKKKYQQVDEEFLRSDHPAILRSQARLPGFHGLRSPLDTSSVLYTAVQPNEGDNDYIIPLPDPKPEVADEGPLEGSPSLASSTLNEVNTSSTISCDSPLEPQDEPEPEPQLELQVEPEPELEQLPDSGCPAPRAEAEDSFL
Chain of IGF1R (P08069 31-1367, species assumed): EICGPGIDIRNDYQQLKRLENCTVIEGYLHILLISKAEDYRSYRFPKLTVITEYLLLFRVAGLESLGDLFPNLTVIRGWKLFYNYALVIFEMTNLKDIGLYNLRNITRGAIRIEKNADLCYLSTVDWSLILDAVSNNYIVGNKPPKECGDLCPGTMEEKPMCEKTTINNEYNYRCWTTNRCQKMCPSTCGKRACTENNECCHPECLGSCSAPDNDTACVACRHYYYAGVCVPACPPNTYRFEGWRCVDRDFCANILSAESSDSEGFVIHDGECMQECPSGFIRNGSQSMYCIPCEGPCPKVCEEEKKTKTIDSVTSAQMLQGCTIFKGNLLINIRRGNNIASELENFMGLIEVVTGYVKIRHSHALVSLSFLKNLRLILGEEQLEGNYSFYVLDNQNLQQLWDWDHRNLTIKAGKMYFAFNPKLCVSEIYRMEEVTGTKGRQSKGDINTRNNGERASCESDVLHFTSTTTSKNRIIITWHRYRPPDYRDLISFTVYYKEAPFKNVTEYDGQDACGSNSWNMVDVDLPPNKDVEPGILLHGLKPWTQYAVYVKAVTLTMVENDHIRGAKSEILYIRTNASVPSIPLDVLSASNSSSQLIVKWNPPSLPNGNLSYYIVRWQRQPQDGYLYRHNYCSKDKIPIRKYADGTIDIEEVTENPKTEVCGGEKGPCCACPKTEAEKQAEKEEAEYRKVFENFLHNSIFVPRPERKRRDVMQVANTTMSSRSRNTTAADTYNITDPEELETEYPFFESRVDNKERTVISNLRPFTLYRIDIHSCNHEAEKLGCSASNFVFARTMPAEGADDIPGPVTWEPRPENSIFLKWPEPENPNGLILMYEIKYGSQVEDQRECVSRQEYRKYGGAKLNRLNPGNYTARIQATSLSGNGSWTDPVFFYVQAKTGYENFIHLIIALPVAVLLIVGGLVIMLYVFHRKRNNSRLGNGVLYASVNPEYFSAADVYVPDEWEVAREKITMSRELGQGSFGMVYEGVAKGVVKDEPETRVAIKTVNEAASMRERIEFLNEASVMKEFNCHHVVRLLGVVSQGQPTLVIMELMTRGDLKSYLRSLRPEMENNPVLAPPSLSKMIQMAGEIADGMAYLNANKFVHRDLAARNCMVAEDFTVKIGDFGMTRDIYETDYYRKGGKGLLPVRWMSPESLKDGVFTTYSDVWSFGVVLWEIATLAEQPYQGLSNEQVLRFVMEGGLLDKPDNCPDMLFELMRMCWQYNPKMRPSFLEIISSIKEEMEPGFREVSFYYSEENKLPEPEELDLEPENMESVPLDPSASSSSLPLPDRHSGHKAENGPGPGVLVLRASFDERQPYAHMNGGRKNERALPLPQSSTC
Chain of FAK (Q05397 whole entry, species assumed): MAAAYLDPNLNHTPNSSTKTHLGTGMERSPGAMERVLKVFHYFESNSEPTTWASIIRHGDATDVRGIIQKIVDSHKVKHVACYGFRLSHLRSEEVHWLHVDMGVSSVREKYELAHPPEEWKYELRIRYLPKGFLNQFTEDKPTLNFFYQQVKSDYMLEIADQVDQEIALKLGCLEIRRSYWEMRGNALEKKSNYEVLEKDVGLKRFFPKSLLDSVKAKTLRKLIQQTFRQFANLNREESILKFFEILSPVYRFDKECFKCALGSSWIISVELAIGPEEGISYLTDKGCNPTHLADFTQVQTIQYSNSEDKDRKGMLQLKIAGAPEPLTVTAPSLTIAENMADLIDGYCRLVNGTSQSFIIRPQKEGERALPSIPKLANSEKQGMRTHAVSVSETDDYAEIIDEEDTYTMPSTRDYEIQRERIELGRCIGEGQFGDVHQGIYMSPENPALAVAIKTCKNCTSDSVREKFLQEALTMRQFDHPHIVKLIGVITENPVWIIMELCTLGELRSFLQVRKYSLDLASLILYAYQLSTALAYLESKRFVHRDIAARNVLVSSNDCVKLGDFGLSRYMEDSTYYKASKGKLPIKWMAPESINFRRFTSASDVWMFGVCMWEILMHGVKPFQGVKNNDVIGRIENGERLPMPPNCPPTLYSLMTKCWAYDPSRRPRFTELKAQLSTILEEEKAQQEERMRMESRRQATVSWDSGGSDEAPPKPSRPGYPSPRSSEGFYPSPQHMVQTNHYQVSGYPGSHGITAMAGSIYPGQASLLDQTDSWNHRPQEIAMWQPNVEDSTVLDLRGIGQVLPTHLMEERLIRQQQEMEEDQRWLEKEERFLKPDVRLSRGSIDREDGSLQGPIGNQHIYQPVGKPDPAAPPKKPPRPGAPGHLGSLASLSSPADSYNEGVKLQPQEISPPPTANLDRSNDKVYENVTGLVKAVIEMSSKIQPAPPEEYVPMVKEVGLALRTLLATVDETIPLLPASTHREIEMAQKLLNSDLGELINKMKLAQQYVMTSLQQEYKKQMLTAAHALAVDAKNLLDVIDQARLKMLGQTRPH
T1 sequence (Q05397 whole entry): as the sequence (Q05397 whole entry, species assumed) above

IC50 (IGF1R) [nM] | IC50 [1] [nM] | IC50 (TGFβR1) [nM] | IC50 (PDGFRβ) [nM] | IC50 (FAK) [nM] | Solubility [2] [µg/mL] | Solubility ([2]; listed as 3-[4-Amino-7-(3-pyrrolidin-1-ylmethylcyclobutyl)-7H-pyrrolo[2,3-d]pyrimidin-5-yl) | solubility at 24 h [2] [µg/mL] | Structure (SMILES)
8400 | 6100 | 210 | 170 | – | – | – | – | NCC1CC(n2cc(-c3cc4ccccc4o3)c3c(N)ncnc32)C1 (centres unmarked) [Compound 37]
110 | 260 | 140 | 120 | 2700 | 1147 (≈ 3.16 mM) | 1147 (tosylate) μg/ml | – | Nc1ncnc2c1c(-c1cccc(O)c1)cn2C1CC(CN2CCCC2)C1 (centres unmarked) [Compound 2, 3-[4-Amino-7-(3-pyrrolidin-1-ylmethylcyclobutyl)-7H-pyrrolo[2,3-d]pyrimidin-5-yl]phenol]
930 | 370 | 180 | 150 | 7900 | – | – | 1330 (≈ 3.99 mM) | NCC1CC(n2cc(-c3ccc4[nH]ccc4c3)c3c(N)ncnc32)C1 (centres unmarked) [Compound 3, 7-(3-Aminomethylcyclobutyl)-5-(1H-indol-5-yl)-7H-pyrrolo[2,3-d]pyrimidin-4-ylamine]
60 | 77 | 120 | 97 | 1800 | – | – | 1070 (≈ 2.95 mM) | Nc1ncnc2c1c(-c1cccc(O)c1)cn2C1CC(CN2CCCC2)C1 (centres unmarked) [Compound 1, 3-[4-amino-7-(3-pyrrolidin-1-ylmethylcyclobutyl)-7H-pyrrolo[2,3-d]pyrimidin-5-yl]phenol]
